The test system of this experiment is 217524-143-R1-J4-PDC spheroids with HUVEC/MSC, viability. The experiment is described as follows: Anticancer human tumor 217524-143-R1-J4-PDC patient-derived pancreatic carcinoma cell line growth inhibition [CLK]. The following applies: for viability, T/C: stronger effect = lower value; for IC50: curve of compound. The source says:
A high-throughput screen of multi-cell type tumor spheroids was designed to identify active combinations of […] and targeted small molecules. Complex spheroids include a stromal component modeled by human endothelial cells (HUVEC) and fibroblasts modeled by human mesenchymal stem cells (MSCs). The concentration ranges selected for each drug and investigational agent were based upon clinically achievable concentrations if the clinical Cmax of the agent was known.
Compounds. The drugs and investigational agents: cirtuvivint (SM08502; NSC835563), CC-671 (NSC850746), vemurafenib (NSC761431), tapotoclax (NSC804041), sotorasib (NSC818433), adagrasib (NSC831453), MRTX-1133 (NSC836407), BAY2416964 (NSC825713), copanlisib (NSC816437), inavolisib (NSC800729), abemaciclib (NSC768073), osimertinib (NSC779217), entinostat (NSC756642), eltanexor (KPT-8602, NSC794443), venetoclax (NSC766270), ceralasertib (NSC777638), bortezomib (NSC756655), olaparib (NSC753686), talazoparib (NSC767125), alisertib (NSC759677), peposertib (NSC802822), gemcitabine (NSC613327), 5-fluorouracil (NSC19893), SN-38 (NSC673596), oxaliplatin (NSC266046), paclitaxel (NSC125973), and doxorubicin (NSC123127), were obtained from the National Cancer Institute (NCI) Developmental Therapeutics Program Chemical Repository. The FDA-approved anticancer drug set is available from the Developmental Therapeutics Program at https://dtp.cancer.gov/organization/dscb/obtaining/available plates.htm. […] The stock solutions were prepared in dimethyl sulfoxide (DMSO, Sigma-Aldrich, St. Louis, MO, cat. D2650), except for the platinum complexes which were prepared in saline (Quality Biological, Gaithersburg, MD, cat. 114-055-101), at 800-fold the tested concentration and stored at -70 degrees C prior to their use. All drugs and investigational agents were tested over a range starting from a high concentration at or near the clinical Cmax and decreasing in half-log increments. If the clinical Cmax for an agent had not been determined, the highest concentration tested was 10 microM.
Cell Culture. All cells were maintained in an incubator at 37 degrees C and 5% CO2 with 95% humidity. The PDC lines were cultured according to standard operating procedures established by the NCI PDMR. Briefly, all PDCs were thawed and cultured in Matrigel-coated flasks prepared with a working solution of 1X Ham's F-12 nutrient mix, without supplementation (Invitrogen, Waltham, MA, cat. 11765054), 100 U/mL penicillin-streptomycin (Invitrogen, cat. 15140122), and 2.5% Matrigel (Corning Inc., Corning, NY, cat. 354248) for the first three passages. The 947758-054-R-J2-PDC line was cultured in 6B/Colon 1A media, which includes advanced DMEM/F-12 (Thermo Fisher Scientific, cat. 12634028), 10 mM HEPES (Thermo Fisher Scientific, cat. 15630080), 1X GlutaMAX supplement (Thermo Fisher Scientific, cat. 35050061), 0.1 mg/mL primocin (InvivoGen, cat. ant-pm-2), 10% defined fetal bovine serum, heat inactivated (HyClone Laboratories Inc., cat. SH30070.03HI), 1.25 mM N-Acetyl-L-cysteine (Sigma-Aldrich, cat. A9165), 10 mM nicotinamide (Sigma-Aldrich, cat. N0636), 1X B-27 supplement (Thermo Fisher Scientific, cat. 17504044), 1X N-2 supplement (Thermo Fisher Scientific, cat. 17502048), and 10 microM Y-27632 dihydrochloride (Tocris Bioscience, cat. 1254). The 876862-298-R-J1-PDC was cultured in 6E media, which includes all 6B/Colon 1A media components plus 50% L-WRN conditioned media (ATCC, cat. CRL-3276), 50 ng/mL recombinant human EGF recombinant protein (hEGF; Thermo Fisher Scientific, cat. PHG0311), 10 ng/mL recombinant human fibroblast growth factor 10 (hGFG-10; PeproTech, cat. 100-26), 1 ng/mL recombinant human fibroblast growth factor 2 (hFGF-2; PeproTech, cat. 100-18B), and 1 µM prostaglandin E2 (PGE2; Tocris, cat. 2296). The 227483-062-R1-J1-PDC line was cultured in Panc media, containing all 6E components except hFGF-2, with the addition of 500 nM SB-431542 (Selleckchem, cat. S1067) and 10 nM gastrin (Tocris, cat. 3006). […]

SMILES strings stand for the structures. “And” between values parts separate entries of the source, which are not always exact repeats. Equal entries are not always repeated.

For orientation: viability, T/C means the ratio of treated to control. The term IC50 denotes the concentration at which inhibition is half-maximal.
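Note: spheroids exposed to agents for seven days before reading.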

`C#Cc1c(F)ccc2cc(O)cc(-c3ncc4c(N5CC6CCC(C5)N6)nc(OCC56CCCN5CC(F)C6)nc4c3F)c12` (stereo unspecified): the IC50 was > 10000 nM. For the same compound, the viability, T/C (compound 0.0316 µM) was 101% and 98%. For the same compound, where the note is “compound 0.1 µM”, the viability, T/C is 81.7% and 90.2%. Under “compound 0.316 µM”, the viability, T/C was 88.5% and 86.4%. In addition, for the setting “compound 1 µM”, the viability, T/C was 85% and 85.9%. Further, under “compound 3.16 µM”, the viability, T/C is 86.7% and 68%. Where the note is “compound 10 µM”, the viability, T/C is 59% and 77.1%.
Take `C=C(F)C(=O)N1CCN(c2nc(OCC3CCCN3C)nc3c2CCN(c2cccc4cccc(Cl)c24)C3)CC1CC#N` (stereo unspecified): the 50% inhibitory concentration (IC50) was 4870 nM and 5320 nM. Besides, the viability, T/C (compound 0.0316 µM) was 91.8% and 102%. The viability, T/C (compound 0.1 µM) is 113% and 96.7%. Also, where the note is “compound 0.316 µM”, the viability, T/C was 109% and 106%. Under “compound 1 µM”, the viability, T/C is 73.5% and 108%. Besides, the viability, T/C (compound 3.16 µM) was 85.6% and 87.4%. The viability, T/C (compound 10 µM) is 3.02% and 4.54%.
For `C=CC(=O)N1CCN(c2nc(=O)n(-c3c(C)ccnc3C(C)C)c3nc(-c4c(O)cccc4F)c(F)cc23)C(C)C1` (stereo unspecified), the IC50 was > 10000 nM. Moreover, for the setting “compound 0.0316 µM”, the viability, T/C is 98.7% and 109%. Also, the viability, T/C (compound 0.1 µM) is 72.6% and 98%. Moreover, the viability, T/C (compound 0.316 µM) is 78.3% and 113%. For the same compound, the viability, T/C (compound 1 µM) is 96.4% and 111%. Moreover, the viability, T/C (compound 3.16 µM) is 126% and 111%. In addition, the viability, T/C (compound 10 µM) was 103%.
As for `C=CC(=O)Nc1cc(Nc2nccc(-c3cn(C)c4ccccc34)n2)c(OC)cc1N(C)CCN(C)C`, the IC50 is 137 nM and 78.7 nM. Also, for the setting “compound 0.000949 µM”, the viability, T/C is 106% and 100%. Also, the viability, T/C (compound 0.003 µM) was 83.4% and 96.4%. The viability, T/C (compound 0.00949 µM) is 100% and 92.1%. The viability, T/C (compound 0.03 µM) was 90.3% and 81.1%. For the same compound, the viability, T/C (compound 0.0949 µM) is 57.1% and 43.5%. Moreover, the viability, T/C (compound 0.3 µM) was 35.3% and 33.1%.
`CC(C)CC(NC(=O)C(Cc1ccccc1)NC(=O)c1cnccn1)B(O)O` (stereo unspecified): the IC50 was 4.99 nM and 4.09 nM. For the same compound, where the note is “compound 0.000949 µM”, the viability, T/C was 107% and 103%. Further, the viability, T/C (compound 0.003 µM) is 68% and 61.1%. Also, the viability, T/C (compound 0.00949 µM) was 27% and 19.8%. Further, the viability, T/C (compound 0.03 µM) was 10.3% and 6.71%. Also, the viability, T/C (compound 0.0949 µM) is 6.69% and 3.3%. In addition, the viability, T/C (compound 0.3 µM) was 2.39% and 1.64%.
For `CC(CO)NC(=O)c1cc(-c2ccc(Cl)cc2)nn(-c2cnn(C)c2)c1=O` (stereo unspecified), the IC50 was > 10000 nM. For the same compound, the viability, T/C (compound 0.0316 µM) was 110% and 92.8%. In addition, for the setting “compound 0.1 µM”, the viability, T/C is 94.5% and 72.6%. The viability, T/C (compound 0.316 µM) was 91.5% and 92.9%. Where the note is “compound 1 µM”, the viability, T/C was 89.1% and 89.9%. Further, for the setting “compound 3.16 µM”, the viability, T/C is 106% and 95.8%. The viability, T/C (compound 10 µM) was 78.1% and 85.5%.
Turning to `CC(Nc1ccc2c(c1)OCCn1cc(N3C(=O)OCC3C(F)F)nc1-2)C(N)=O` (stereo unspecified), the IC50 is 67.6 nM and 43.3 nM. Also, the viability, T/C (compound 0.0316 µM) was 77.3% and 57.6%. In addition, the viability, T/C (compound 0.1 µM) was 36% and 29.8%. Under “compound 0.316 µM”, the viability, T/C was 16.3% and 11.6%. Further, the viability, T/C (compound 1 µM) is 8.54% and 7.09%. Also, the viability, T/C (compound 3.16 µM) was 6.58% and 6.55%. The viability, T/C (compound 10 µM) is 4.15% and 4.2%.
As for `CCCS(=O)(=O)Nc1ccc(F)c(C(=O)c2c[nH]c3ncc(-c4ccc(Cl)cc4)cc23)c1F`, the concentration for half-maximal inhibition (IC50) was > 10000 nM. For the setting “compound 0.0316 µM”, the viability, T/C was 111% and 94.5%. The viability, T/C (compound 0.1 µM) is 110% and 95%. Also, the viability, T/C (compound 0.316 µM) is 109% and 117%. Moreover, the viability, T/C (compound 1 µM) was 138% and 127%. The viability, T/C (compound 3.16 µM) is 144% and 134%. Under “compound 10 µM”, the viability, T/C is 59.8% and 57%.

These data come from PubChem BioAssay AID2060624 (Molecular Pharmacology Branch, DTP, NCI, 2025).
